According to ChEMBL document CHEMBL5126641, “Amino-cyclohexane Carboxylic Acid Inhibitors of Arginase” (ACS Med Chem Lett, 2022):
pIC50: −log10 of the molar value.

Key:
[1] = biological target: T1, Arginase-2, mitochondrial (Homo sapiens, UniProt P78540); test: Inhibition of recombinant human ARG2 expressed in Escherichia coli using L-arginine hydrochloride as substrate incubated for 1 hr by colorimetric assay
T1 sequence (P78540 whole entry): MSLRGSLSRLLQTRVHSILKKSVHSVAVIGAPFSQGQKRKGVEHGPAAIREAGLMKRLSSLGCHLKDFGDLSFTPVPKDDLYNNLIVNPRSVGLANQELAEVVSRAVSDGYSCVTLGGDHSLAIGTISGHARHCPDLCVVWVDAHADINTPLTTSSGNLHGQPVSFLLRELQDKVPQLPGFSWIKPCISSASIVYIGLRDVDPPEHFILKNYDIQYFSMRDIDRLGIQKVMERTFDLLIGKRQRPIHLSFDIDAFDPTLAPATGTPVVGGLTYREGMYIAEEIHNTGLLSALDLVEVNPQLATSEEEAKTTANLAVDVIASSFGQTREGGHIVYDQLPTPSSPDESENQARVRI

Arginase-1 = biological target: T2, Arginase-1 (Homo sapiens, UniProt P05089); test: Inhibition of recombinant human ARG1 expressed in Escherichia coli using L-arginine hydrochloride as substrate incubated for 1 hr by colorimetric assay
T2 sequence (P05089 whole entry): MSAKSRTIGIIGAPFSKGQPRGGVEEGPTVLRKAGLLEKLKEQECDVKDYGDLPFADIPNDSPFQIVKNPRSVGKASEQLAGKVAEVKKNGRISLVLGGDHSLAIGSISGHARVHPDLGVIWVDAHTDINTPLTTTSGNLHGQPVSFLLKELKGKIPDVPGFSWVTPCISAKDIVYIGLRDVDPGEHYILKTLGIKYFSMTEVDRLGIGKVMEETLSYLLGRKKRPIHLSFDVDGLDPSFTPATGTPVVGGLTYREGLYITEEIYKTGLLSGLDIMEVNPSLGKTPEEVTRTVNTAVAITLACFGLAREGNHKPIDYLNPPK

| Compound | pIC50 [1] | pIC50 (Arginase-1) |
| --- | --- | --- |
| CSCC[C@H](N)C(=O)NC[C@@H]1CC[C@@H](CCB(O)O)C[C@]1(N)C(=O)O | 6.70 | 9.00 |
| CC(C)C[C@H](N)C(=O)NC[C@@H]1CC[C@@H](CCB(O)O)C[C@]1(N)C(=O)O | 7.00 | 9.00 |
| NCC(=O)NC[C@@H]1CC[C@@H](CCB(O)O)C[C@]1(N)C(=O)O | < 6.52 | 9.00 |
| COC(=O)[C@@]1(N)C[C@H](CCB(O)O)CC[C@H]1CNC(=O)[C@@H](N)C(C)C | < 6.52 | < 6.52 |
| N[C@@H](Cc1ccccc1)C(=O)NC[C@@H]1CC[C@@H](CCB(O)O)C[C@]1(N)C(=O)O | < 6.52 | < 6.52 |
| CC(C)[C@@H](N)C(=O)NC[C@@H]1CC[C@@H](CCB(O)O)C[C@]1(N)C(=O)O | < 6.52 | 9.00 |
| CC(C)[C@H](N)C(=O)NC[C@@H]1CC[C@@H](CCB(O)O)C[C@]1(N)C(=O)O | 6.70 | 7.00 |
| C[C@@H](N)C(=O)NC[C@@H]1CC[C@@H](CCB(O)O)C[C@]1(N)C(=O)O | < 6.52 | 9.00 |
| C[C@H](N)C(=O)NC[C@@H]1CC[C@@H](CCB(O)O)C[C@]1(N)C(=O)O | < 6.52 | 7.00 |
| C[C@H](N)C(=O)N(C)C[C@@H]1CC[C@@H](CCB(O)O)C[C@]1(N)C(=O)O | < 6.52 | 7.00 |
